Results taken from patent publication US11937624B2, “Food composition” (INNOVAFOOD AB, priority 2011, dated 2024).
Marks after values point to notes of the source that are not given here.

Key:
serum insulin = assay: Postprandial serum insulin response to white wheat bread test meal with test drink (Example 1); assay type: in vivo, human
Method: (§1) Four different beverages were tested by the inventors; one reference, one with only the amino acid mixture, one with only CrPic, and one combining the amino acid mixture with CrPic. The amino acids used were L-leucine, L-isoleucine, L-lysine, L-valine and L-threonine.
(§2) The reference (“Ref”) drink was made out of tap water and aroma, poured into 330 mL bottles and carbonated with a Table Top Carbonator CF-121 (Omve) set at 10 g CO2/L.
(§3) The beverage with CrPic (“CrPic”) was prepared by dissolving one thawed pellet of concentrated CrPic solution (4.0 grams) in 308.0 grams of carbonated tap water and thereafter 0.19 grams of aroma was added. Additional CO2 was added just before serving with a Soda Streamer to mimic the amount in the Ref drink.
(§4) The beverage with amino acids (“5AA”) was prepared by dissolving 6.9 grams of the amino acid mixture in 305.1 grams of carbonated tap water and thereafter 0.19 grams of aroma was added. Additional CO2 was added just before serving with a Soda Streamer to mimic the amount in the Ref drink. See Table 7 for composition of amino acid mixture.
(§5) The beverage with amino acids and CrPic (“5AA+CrPic”) was prepared by dissolving 6.9 grams of the amino acid mixture and one thawed pellet of concentrated CrPic solution (4 grams) in 301.1 grams of carbonated tap water and thereafter 0.19 grams of aroma was added. Additional CO2 was added just before serving with a Soda Streamer to mimic the amount in the Ref drink.
(§6) The test meals consisted of sandwiches made of white wheat bread (Dollarfranska, Lockarps, Lockarp, Sweden), contributing with 50 grams of available starch, and the test drinks. The white wheat bread was spread with 10 grams of butter (Bregott, Arla, Stockholm, Sweden) and 24 grams of orange marmalade (kindly provided by Önos, Procordia Food, Eslöv). The sandwiches provided 9 grams of protein and an additional amount of carbohydrates from the marmalade and butter of 14 grams. A schematic overview of the composition of the different test meals is found in Table 2.
(§7) Nineteen healthy subjects, 11 men and 8 women, aged 38-60 (51±1 years; mean±SEM) and with body mass indexes of 24-30 (27.3±0.3 kg/m2; mean±SEM) were included in the study. All subjects had normal fasting blood glucose levels (5.6±0.1 mmol/L, mean±SEM).
(§8) The test subjects were instructed to eat a dinner of own choice (but with a low content of fiber) as well as an evening meal consisting of white wheat bread and a beverage, and to eat the same meals the evening before every test occasion. After the white wheat bread meal at around 9-10 p.m., the subjects were thereafter to restrain from ingesting anything but maximum a half glass of water on the morning of the test occasion.
(§9) Upon arrival at the laboratory at 07:45 on the test day, the subjects were sat to rest before a fasting capillary blood sample was drawn. Immediately thereafter, the test meal was served and a digital timer was started. Together with the drinks, a […] sandwich meal was served, containing 64 g available carbohydrates, 9.1 g protein and 11.7 g fat. The subjects were instructed to finish the meal in 10-15 minutes and to alternate between eating and drinking. All meals were well tolerated, and the subjects had no problems finishing eating within the 10-15 min period.
(§10) Capillary blood samples were taken at fasting and 15, 30, 45, 60, 90, 120 and 180 min after the ingestion of the meal for the analysis of blood glucose and serum insulin.
(§11) Blood glucose was immediately analyzed in serum with the use of a B-glucose analyzer (Hemocue AB, Ängelholm, Sweden). Serum tubes were centrifuged for 5 min (3000 rpm) and serum was frozen at −18° C. for the measurement of insulin. The serum insulin measurement was performed on an integrated immunoassay analyzer (CODA open Microplate System, Bio-Rad Laboratories, Hercules, CA) by using an enzyme immunoassay kit (Mercodia Insulin ELISA, Mercodia AB, Uppsala, Sweden). […]

blood glucose = assay: Postprandial blood glucose response to white wheat bread test meal with test drink (Example 1); assay type: in vivo, human
Method: as §1, §2, §3, §4, §5, §6, §7, §8, §9, §10, §11

[1] = Table 5 comparison, 0-120 min, mean ± SEM, n=19 (5AA n=18)
[2] = Table 5 comparison, vs Ref meal
[3] = healthy subjects, carbonated water drink with sandwich meal, 0-60 min, mean ± SEM, n=19 (5AA n=18)
[4] = healthy subjects, carbonated water drink with sandwich meal, 0-120 min, mean ± SEM, n=19 (5AA n=18)
[5] = healthy subjects, carbonated water drink with sandwich meal, 0-180 min, mean ± SEM, n=19 (5AA n=18)

For Chromium tripicolinate [CrPic], the “Change in insulin iAUC 0-60 min as a percentage of the reference meal” value (serum insulin; 0-60 min, vs Ref meal) was −12%, the “Change in insulin iAUC 0-120 min as a percentage of the reference meal” value (serum insulin; 0-120 min, vs Ref meal) was −10% and the “Change in insulin iAUC 0-180 min as a percentage of the reference meal” value (serum insulin; 0-180 min, vs Ref meal) was −11%. The Insulin iAUC 0-120 min (serum insulin; [1]) was 15.4 ± 1.9 nmol·min/L, the “Change (%) of insulin iAUC 0-120 min” value (serum insulin; [2]) was −10% and the “Insulin iAUC 0-60 min” value (serum insulin; [3]) was 7.5 ± 0.9^a nmol · min/L. The “Insulin iAUC 0-120 min” value (serum insulin; [4]) was 15.4 ± 1.9^a nmol · min/L, the “Insulin iAUC 0-180 min” value (serum insulin; [5]) was 18.5 ± 2.6^b nmol · min/L and the “Change in glucose iAUC 0-60 min as a percentage of the reference meal” value (blood glucose; 0-60 min, vs Ref meal) was −13%. The “Change in glucose iAUC 0-120 min as a percentage of the reference meal” value (blood glucose; 0-120 min, vs Ref meal) was −6%, the “Change in glucose iAUC 0-180 min as a percentage of the reference meal” value (blood glucose; 0-180 min, vs Ref meal) was −4% and the Glucose iAUC 0-120 min (blood glucose; [1]) was 189 ± 20.7 mmol·min/L. The “Change (%) of glucose iAUC 0-120 min” value (blood glucose; [2]) was −6%, the “Blood glucose iAUC 0-60 min” value (blood glucose; [3]) was 100.2 ± 9.3^ac mmol min/L and the “Blood glucose iAUC 0-120 min” value (blood glucose; [4]) was 189.1 ± 20.7^ab mmol min/L. The “Blood glucose iAUC 0-180 min” value (blood glucose; [5]) was 222.3 ± 25.6 mmol·min/L.
